Measured values reported in US6740521B2, “High-sensitive detection of environmental pollutants” (priority 2001, dated 2004).
Like-named read-outs stand apart in the source and are kept apart here.

System: CHO 2F1813 cells
Assay type: cell-based, Chinese hamster
[1] = 2F1813 strain compared with SV40-promoter control strain 5K95, FIG. 3 to FIG. 6

Row | Compound | Fluorescence value (β-galactosidase inducing activity) | Induction of the β-galactosidase activity expression | Induction of the β-galactosidase activity expression [1]
1 | [Ni] [Nickel] | 1.3˜18 RU | observed only in the 2F1813 stain | 
2 | Clc1ccccc1Cl [o-Dichlorobenzene] |  |  | observed only in the 2F1813 stain
3 | Nonylphenol A |  |  | observed only in the 2F1813 stain
4 | CCCCC(CC)COC(=O)c1ccccc1C(=O)OCC(CC)CCCC (stereo not shown) [Di(ethylhexyl)phthalate] |  |  | observed only in the 2F1813 stain
5 | [Cd] [Cadmium] |  |  | observed only in the 2F1813 stain
6 | C1COCCO1 [1,4-Dioxane] | 0˜27 RU |  | 
